Measured values as given in US6911221B2, “Anti-neoplastic drug” (priority 2001, dated 2005).

What was measured:
[1] = tested on: NK and IL-2 activity; conditions: oral; lung cancer implanted mice and normal mice; cited from earlier work
[2] = tested on: S180 sarcoma; conditions: subcutaneous transplantation; cited from earlier work
[3] = tested on: LEWIS lung cancer; conditions: subcutaneous transplantation; cited from earlier work
[4] = tested on: B16 melanoma; conditions: subcutaneous transplantation; cited from earlier work
[5] = tested on: MADB106 tumor cells; assay: Pulmonary metastasis count after tail vein injection of MADB106 tumor cells, with or without β-receptor agonist MP; assay type: in vivo, Fischer rats; conditions: for effect of β-receptor agonist on number of MADB106 metastases (in words): MP injected at tumor cell inoculation
Experimental: 3. The experimental animals were divided into a test group and a control group. The animals in the test group were fed with 0.1, 0.5, 2 g/kg body weight ACNO mixed and standard powdered rodent food to which water was added (test food), every day. The animals in the control group received the same wet food mixture without ACNO (control food) in the same amount. All animals were fed at regular times every day. To adjust animals to the feeding protocol, all rats received the wet mixture without ACNO for 3 days before each experiment. Thereafter, the animals were fed test food and control food, respectively. Rats from all groups consumed more than 95% of the food each day. Approximately 70% of it was consumed during the dark phase. Body weight of each animal was monitored twice a week during the experiment. 4. MADB106 tumor cell—MADB106 cell was obtained from a pulmonary metastasis of a mammary adenocarcinoma (MADB100) by a special incubation. 5. Induction and counting of tumor metastasis—Rats were lightly anesthetized with halothane, and then 10^5 MADB106 tumor cells were injected into their tail vein. […] Rats were anesthetized with halothane after they were fed with ACNO for 3 weeks counted from the day of tumor inoculation, and their lungs were removed and placed in Bouin solution (72% saturated picric acid solution, 23% formaldehyde [37% solution] and 5% glacial acetic acid) for 24 h. Thereafter, the lungs were washed with ethanol, and then the cell number of pulmonary metastasis were counted by two experimenters unaware of the group origin (in a blind technique), independently. The obtained data were analyzed statistically. […] healthy […] Fischer rats that were 7-8 weeks old and of 120-170 g body weight (48 females and 61 males), were randomly divided into 2 groups, an experiment group and a control group. […] Thereafter, the lungs were washed with ethanol, and then the cell number of pulmonary metastasis were counted by two experimenters unaware of the group origin (in a blind technique), independently. The obtained data were analyzed statistically.

Row | SMILES | IL-2 activity [1] | NK activity [1] | inhibition rate [2] | inhibition rate [3] | inhibition rate [4] | effect of β-receptor agonist on number of MADB106 metastases (in words) [5] | effect of β-receptor agonist on number of MADB106 metastases (in words) ([5]; listed as Metaproterenol) | cell number of MADB106 metastases ([5]; control food plus MP injection, NS controls 70+14)
1 | CC(C)=CCC[C@](C)(O)[C@H]1CC[C@]2(C)[C@@H]1[C@H](O)C[C@@H]1[C@@]3(C)CC[C@H](O[C@@H]4O[C@H](CO)[C@@H](O)[C@H](O)[C@H]4O[C@@H]4O[C@H](CO)[C@@H](O)[C@H](O)[C@H]4O)C(C)(C)[C@@H]3CC[C@]12C [Rg3, ginsenoside Rg3] | remarkably enhance | remarkably enhance | 50-60% | 50-60% | 50-60% | – | – | –
2 | CC(C)NCC(O)c1cc(O)cc(O)c1 (centres unmarked) [MP, Metaproterenol] | – | – | – | – | – | significantly increased the cells number of metastases | significantly increased the number of metastases | 255+32
